Data on one molecule can be found in publication PMC9929129, “Towards Translation of PqsR Inverse Agonists: From In Vitro Efficacy Optimization to In Vivo Proof‐of‐Principle” (Advanced Science, 2023).

Data set [1] deals with T1, HTR2B Human 5-Hydroxytryptamine GPCR (Homo sapiens, UniProt P41595).
T1 construct: 86-0030P-2091AN
Nature of the data set: HTR2B GPCR calcium assay, 86-0030P-2091AG. It counts as cell-based. From the text: 1.4.2 Further functional off-target assays (Eurofins)
Table S8. Compound 24 was further tested in the following functional assays at Eurofins.
ASSAY NAME ESTIMATED IC50 [µM] […]
(§1) FLIPR Assay expressed in HEK293 cells
GABAA α5/β3/γ2 ionotropic receptor (human GABRA5, GABRB3, >30
and GABRG2 genes, expressed in HEK293 cells

A short description of data set [2]: Mouse maximum tolerated dose (MTD) study. It is filed as in vivo, NMRI mice. Here is the method:
1.4.6 Mouse Maximum tolerated dose (MTD) study (Aurigon)
The maximum tolerated dose of 24 in NMRI mice was conducted and analyzed at CRO ATRC Aurigon Toxicological Research Center Ltd, Hungary. The study was conducted in accordance with Standard Operating Procedures of ATRC and the requirements of EEC Directive 2001/83/EC of the European Parliament and of the Council of November 6, 2001 on the Community Code relating to Medicinal Products for human use (Official Journal L -311,28/11/2004, p.67–128) as amended by EEC Directive 2004/27/EC of the European Parliament and the Council of March 31, 2004 amending Directive 2001/83/EC on the Community code relating to medicinal products for human use (Official Journal L - 136, 30/04/2004, p. 34-57), ICH Guideline M3(R2) “Guidance on Nonclinical Safety Studies for the Conduct of Human Clinical Trials and Marketing Authorization for Pharmaceuticals”, ICH Guideline S3A “Toxicokinetics: The Assessment of Systemic Exposure in Toxicity Studies”, OECD Guideline for the Testing of Chemicals: Toxicokinetics, (OECD 417, 2010). This study was conducted in compliance with the principles of Hungarian Act 1998: XXVIII regulating animal protection (latest modified by Act 2011 CLVIII) and in Government Decree 40/2013 on animal experiments. Handling and care of the animals will be conducted according to the Guide for the Care and Use of Laboratory Animals, NRC, […]
Animals were 6 weeks old and weighed 27–34 g. 24 was applied subcutaneously in a formulation […]
48 h. As no clinical findings were observed, 30 mg/kg was then applied to the next group. Likewise, 60 mg/kg were applied 48 h after. Mortality was observed twice a day. Clinical observation was performed directly after dosing, 1 h, 2 h, 4 h, 24 h and 48 h after administration. Body weight was registered prior to treatment and daily after the dosing for 48 h. For serum concentration determination, 100 μL blood were collected from each animal at 0.5 h and 4 h time points after the administration, processed to plasma and analyzed using HPLC-MS/MS at HZI. Each group consisted of 5 male and 5 female mice, 2 of which were used for blood collection.

Data set [3] relates to Pseudomonas aeruginosa strain PA14. The data set can be described thus: Alkylquinolone quantification, strain PA14. It counts as cell-based. Here is the method: 1.2.2 Pyocyanin assay in Pseudomonas aeruginosa
Inhibition of pyocyanin biosynthesis of compounds was measured spectrophotometrically as previously described.[2] Pseudomonas aeruginosa PA14 was grown in rich medium for 16 h under agitation with and without compound. Pyocyanin was extracted from cultures with chloroform, then re-extracted with 0.2 M HCl and quantified photometrically (520 nm). IC50 values were determined from dose-response curves of compounds using at least six different concentrations and fitting with non-linear regression analysis (OriginPro 2017–2020, Originlab Corporation).
1.2.3 Alkylquinolone quantification
Inhibition of alkylquinolone (AQ) signal molecule biosynthesis of compound 24 was analyzed via LC-ESI-MS/MS. Extracellular concentrations of the AQs PQS (2-heptyl-3-hydroxy-4-quinolone), HHQ (2-heptyl-4-quinolone), HQNO (N-oxo-2-heptyl-4-Hydroxyquinoline), 2-AA (2-aminoacetophenone) were measured from supernatants of cultures incubated with or without compound for 17 h. 5,6,7,8-Tetradeutero-2-heptyl-4(1H)-quinolone (HHQ-d4) was added as internal standard before sample preparation. IC50 values were calculated according to the procedure of the pyocyanin assay (see above). LC-ESI-MS/MS conditions were as follows: Dionex Ultimate 3000 HPLC instrument parameters: Zorbax Eclipse XDB 80 Å C18 5 µm 4.6 x 50 mm (Agilent, Santa Clara, CA, USA); eluent A – H2O with 0.1% trifluoroacetic acid (TFA), 0.1% pentafluoropropionic acid (PFPA), 0.1% heptafluorobutyric acid (HFBA); eluent B – acetonitrile with 0.1% TFA, 0.1% PFPA, 0.1% HFBA; isocratic 50% A; flow – 0.7 mL/min. TSQ Quantum Access Max (Thermo Fisher Scientific, Waltham, MA, USA) instrument parameters: Spray voltage 3500 V, vaporizer temperature 370 °C, sheath gas pressure 35 psi, aux gas pressure 30 psi, capillary temperature 270 °C, collision pressure 1.5 mTorr, positive ionization mode. For AQ analyte reaction monitoring parameters please see Table S1.
Table S1. LC-ESI-MS/MS reaction monitoring parameters of AQ analytes in positive ionization mode. […]
Six replicates per sample were distributed evenly across the plate, with every row containing one replicate of each sample. The well plate was covered with the peg lid. One layer of parafilm was wrapped around the biofilm inoculator. The inoculator was incubated at 37 °C, static for 24 h with a beaker of H2O ensuring humidity. Alternatively, the plate was incubated using only LB for 8 h prior to addition of DMSO/24 to give 1% DMSO, followed by another 16 h incubation under the same […]
After 24 h, the plate was removed from the incubator and the peg lid was transferred to a fresh 96 well plate (Nunc U bottom, Thermo Fisher, Dreieich, Germany) containing the respective target

Data set [4] concerns the target T2, BK (KCa1.1/β1) calcium-activated potassium channel (Homo sapiens, UniProt Q12791).
T2 construct: host or cells: CHO cells
Nature of the data set: Ion channel profiling at Charles River: BK. It counts as cell-based. As to conditions: expressed in CHO cells; read-out: ESTIMATED IC50. Here is the method:
1.4.3 Ion Channel Profiling at Charles River
Table S9. Compound 24 was tested against the following ion channels at Charles River Laboratories. […]
BK (KCa1.1/β1) calcium-activated potassium channel (human >30
KCNMA1 and KCNMB1 genes) expressed in CHO cells
FASTPatch Assay IK (KCa3.1) calcium-activated potassium channel (human KCNN4 >30 gene) expressed in CHO cells […]
as §1
GABAA α5/β3/γ2 ionotropic receptor (human GABRA5, GABRB3, >30 and GABRG2 genes, expressed in HEK293 cells

Like-named read-outs stand apart in the source and are kept apart here.

T1 sequence (P41595 whole entry): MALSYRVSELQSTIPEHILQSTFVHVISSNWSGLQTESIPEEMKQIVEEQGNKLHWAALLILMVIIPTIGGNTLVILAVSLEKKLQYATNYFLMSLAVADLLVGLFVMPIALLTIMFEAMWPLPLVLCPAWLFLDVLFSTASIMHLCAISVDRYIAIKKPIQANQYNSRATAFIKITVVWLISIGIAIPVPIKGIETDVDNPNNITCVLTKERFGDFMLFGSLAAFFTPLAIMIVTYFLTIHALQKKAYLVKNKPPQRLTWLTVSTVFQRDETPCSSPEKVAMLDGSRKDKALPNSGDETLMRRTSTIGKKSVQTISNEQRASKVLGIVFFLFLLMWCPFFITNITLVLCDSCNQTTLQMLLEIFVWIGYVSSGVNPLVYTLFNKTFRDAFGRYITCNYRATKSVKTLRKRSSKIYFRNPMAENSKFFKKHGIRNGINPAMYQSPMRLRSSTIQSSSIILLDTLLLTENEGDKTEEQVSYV
T2 sequence (Q12791 whole entry): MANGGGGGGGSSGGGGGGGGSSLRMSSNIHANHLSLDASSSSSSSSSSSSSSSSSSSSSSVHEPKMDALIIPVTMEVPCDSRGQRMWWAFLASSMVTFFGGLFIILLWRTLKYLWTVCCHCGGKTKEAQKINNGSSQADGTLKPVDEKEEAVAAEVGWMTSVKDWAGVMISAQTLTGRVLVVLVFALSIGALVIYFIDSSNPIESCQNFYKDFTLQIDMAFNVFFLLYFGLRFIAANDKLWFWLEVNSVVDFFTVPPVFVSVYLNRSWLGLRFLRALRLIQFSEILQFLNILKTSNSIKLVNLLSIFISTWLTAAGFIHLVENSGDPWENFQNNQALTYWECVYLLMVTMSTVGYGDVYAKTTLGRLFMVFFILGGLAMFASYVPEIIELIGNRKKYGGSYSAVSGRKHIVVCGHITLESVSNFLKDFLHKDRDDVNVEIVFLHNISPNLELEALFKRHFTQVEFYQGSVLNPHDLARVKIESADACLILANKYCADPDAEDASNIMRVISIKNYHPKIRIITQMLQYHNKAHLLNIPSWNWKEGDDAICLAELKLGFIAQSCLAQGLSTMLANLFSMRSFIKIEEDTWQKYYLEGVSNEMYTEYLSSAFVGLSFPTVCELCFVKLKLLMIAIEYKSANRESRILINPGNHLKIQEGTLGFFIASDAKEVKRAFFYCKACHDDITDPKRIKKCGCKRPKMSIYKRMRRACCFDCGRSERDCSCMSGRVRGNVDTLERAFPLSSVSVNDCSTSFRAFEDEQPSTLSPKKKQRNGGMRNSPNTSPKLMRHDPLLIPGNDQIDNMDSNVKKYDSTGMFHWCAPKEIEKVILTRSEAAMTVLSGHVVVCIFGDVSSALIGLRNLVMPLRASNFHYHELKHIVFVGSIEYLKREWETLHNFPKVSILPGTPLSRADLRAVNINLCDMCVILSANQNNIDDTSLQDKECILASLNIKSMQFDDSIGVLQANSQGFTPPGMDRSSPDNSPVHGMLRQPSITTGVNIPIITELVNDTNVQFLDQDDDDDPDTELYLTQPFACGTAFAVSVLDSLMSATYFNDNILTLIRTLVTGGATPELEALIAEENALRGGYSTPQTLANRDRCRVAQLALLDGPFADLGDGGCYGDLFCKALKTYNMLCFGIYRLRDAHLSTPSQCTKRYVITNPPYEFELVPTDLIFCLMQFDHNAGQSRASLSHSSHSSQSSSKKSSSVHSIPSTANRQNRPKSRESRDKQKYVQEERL
T2 sequence (Q16558 whole entry partner): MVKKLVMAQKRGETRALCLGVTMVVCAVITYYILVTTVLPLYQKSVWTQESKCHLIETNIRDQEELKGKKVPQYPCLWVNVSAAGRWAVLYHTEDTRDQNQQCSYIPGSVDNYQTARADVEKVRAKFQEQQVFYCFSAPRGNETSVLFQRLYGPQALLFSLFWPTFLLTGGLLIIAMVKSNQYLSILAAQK

The term IC50 denotes the midpoint of a concentration-inhibition curve. As for `CC(C)Oc1ccc(-c2ncc(CNc3ccnc(C(F)(F)F)c3)cn2)cc1Cl` [Compound 24], the IC50 is more than 10000 nM in data set [1]; 386 nM in data set [3] (PA14, 17 h, read-out: IC50 PA14, 2‐AA biosynthesis); 233 nM in data set [3] (PA14, 17 h, read-out: IC50 PA14, HHQ biosynthesis); 347 nM in data set [3] (PA14, 17 h, read-out: IC50 PA14, HQNO biosynthesis); 349 nM in data set [3] (PA14, 17 h, read-out: IC50 PA14, PQS biosynthesis); 160 to 453 nM in data set [3] (PA14, read-out: IC50 values for individual AQs). The IC50 in data set [4] is more than 30000 nM. The clinical findings entry in data set [2] (60 mg kg^−1 subcutaneous, slight, transient, at 2 and 4 h) is “piloerection and decreased activity (3 of 10 mice)”; in data set [2] (10 and 30 mg kg^−1 subcutaneous), “devoid of any clinical findings”. Moreover, the “mortality or loss of body weight” value in data set [2] (10, 30, and 60 mg kg^−1 subcutaneous, during 48 h) is “no mortality or loss of body weight”. The “tolerability in male and female mice” value in data set [2] (up to 60 mg kg^−1 subcutaneous) is reported as “well tolerated”.
